Source: PMC7562955 (Nature Communications, 2020)
pIC50: −log10 of the molar value.

Molecular target: T1, mouse TLR7 (Mus musculus, UniProt P58681)
T1 construct: host or cells: HEK293 (293XL-mTLR7)
T1 sequence (P58681 27-1050): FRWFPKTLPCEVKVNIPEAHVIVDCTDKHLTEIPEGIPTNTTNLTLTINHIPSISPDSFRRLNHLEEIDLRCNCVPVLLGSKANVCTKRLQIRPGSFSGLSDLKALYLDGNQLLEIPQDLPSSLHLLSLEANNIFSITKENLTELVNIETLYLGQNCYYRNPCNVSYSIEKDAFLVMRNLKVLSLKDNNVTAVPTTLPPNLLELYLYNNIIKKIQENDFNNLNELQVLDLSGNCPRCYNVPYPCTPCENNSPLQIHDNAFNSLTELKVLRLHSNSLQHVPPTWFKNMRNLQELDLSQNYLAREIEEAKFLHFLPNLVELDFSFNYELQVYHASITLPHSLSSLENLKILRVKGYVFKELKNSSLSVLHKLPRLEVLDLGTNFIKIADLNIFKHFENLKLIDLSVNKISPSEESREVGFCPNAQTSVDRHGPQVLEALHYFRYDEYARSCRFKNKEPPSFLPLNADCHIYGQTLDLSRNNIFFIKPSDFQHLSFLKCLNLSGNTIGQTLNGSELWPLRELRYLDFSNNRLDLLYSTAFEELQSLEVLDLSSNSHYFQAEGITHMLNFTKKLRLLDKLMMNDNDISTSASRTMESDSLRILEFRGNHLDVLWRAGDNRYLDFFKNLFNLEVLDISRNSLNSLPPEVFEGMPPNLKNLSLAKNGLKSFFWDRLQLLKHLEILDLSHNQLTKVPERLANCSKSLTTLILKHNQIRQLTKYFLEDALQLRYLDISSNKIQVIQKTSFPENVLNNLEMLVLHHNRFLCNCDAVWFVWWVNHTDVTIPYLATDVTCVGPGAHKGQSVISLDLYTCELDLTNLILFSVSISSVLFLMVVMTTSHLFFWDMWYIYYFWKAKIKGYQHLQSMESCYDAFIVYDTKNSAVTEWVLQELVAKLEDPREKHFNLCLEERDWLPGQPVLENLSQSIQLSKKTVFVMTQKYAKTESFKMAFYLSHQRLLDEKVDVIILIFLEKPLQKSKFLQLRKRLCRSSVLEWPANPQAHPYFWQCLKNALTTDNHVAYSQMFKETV
Test: Mouse TLR7 reporter gene assay (NF-kB luciferase, HEK293)
Type: cell-based
Experimental: Compounds were dissolved in dimethyl sulfoxide. The day before transfection, mouse TLR7 genestably-expressing HE293 cell line (293XL-mTLR7 cell, InvivoGen, USA) and mouse TLR9 genestably-expressing HEK293 cell line (293-mTLR9 cell, InvivoGen) were seeded in collagen-coated 6-well plate (AGC techno glass) at 3 × 10^5 cells/well in DMEM (GIBCO) with 10% fetal bovine serum (GIBCO), and 10 μg ml^−1 Blastcidin S HCl (GIBCO) and incubated at 37 °C in 5% CO2. The plates were incubated over-night and then cotransfected with 1 μg (mouse TLR7) or 0.3 μg (mouse TLR9) of pNF-kB-Luciferase reporter in a 10:1 ratio with 4 μl of FuGene6 transfection reagent (Promega corporation, USA) following the manufacturer’s instructions. The plates were incubated 24 h. The cells re-seeded into 96-well plate (AGC techno glass) at 2 × 10^4 cells/well in DMEM (GIBCO) with 10% fetal bovine serum (GIBCO), and 10 μg ml^−1 Blastcidin S HCl (GIBCO) and then inhibition with various concentrations of compound. HCQ (mouse TLR7/9, Acros Organics, United Kingdom) was used as positive control. After 30 min, R848 (mouse TLR7/8 ligand) or CpG1826 (mouse TLR9 ligand, Hokkaido System Science Co., Ltd.) added to each well, wherein each final concentration were adjusted to 200 nM R848 (mouse TLR7) or 100 nM CpG1826 (mouse TLR9). The plates were then incubated an additional 6 h at 37 °C in 5% CO2, and then the luciferase activity was measured as activation of mouse TLR7 and 9. The luciferase activity was evaluated as follows: Bright-GloTM Luciferase Assay System (Promega) was added to the incubated sample (100 μl/well); after 2 min, the luminescence intensity of each sample was measured with a luminometer (Envision).

[1] = compound 0.0001 nM (as headed), R848 200 nM
[2] = compound 0.001 nM (as headed), R848 200 nM
[3] = compound 0.003 nM (as headed), R848 200 nM
[4] = compound 0.01 nM (as headed), R848 200 nM
[5] = compound 0.03 nM (as headed), R848 200 nM
[6] = compound 0.1 nM (as headed), R848 200 nM
[7] = compound 0.3 nM (as headed), R848 200 nM
[8] = compound 1 nM (as headed), R848 200 nM
[9] = compound 3 nM (as headed), R848 200 nM
[10] = compound 10 nM (as headed), R848 200 nM
[11] = compound 30 nM (as headed), R848 200 nM
[12] = compound 100 nM (as headed), R848 200 nM

| Compound | selectivity mouse TLR7 vs TLR9 | pIC50 (R848 200 nM) | mouse TLR7 activity, reporter signal [1] | mouse TLR7 activity, reporter signal [2] | mouse TLR7 activity, reporter signal [3] | mouse TLR7 activity, reporter signal [4] | mouse TLR7 activity, reporter signal [5] | mouse TLR7 activity, reporter signal [6] | mouse TLR7 activity, reporter signal [7] | mouse TLR7 activity, reporter signal [8] | mouse TLR7 activity, reporter signal [9] | mouse TLR7 activity, reporter signal [10] | mouse TLR7 activity, reporter signal [11] | mouse TLR7 activity, reporter signal [12] |
| --- | --- | --- | --- | --- | --- | --- | --- | --- | --- | --- | --- | --- | --- | --- |
| CCOc1nc(C)c2nc(-c3cncc(F)c3)n(Cc3ccc(CN4C[C@@H]5C[C@H]4CN5C)cc3)c2n1 [Cpd-7] | TLR7-selective | 6.72 | 7166 | 5248 | 4474 | 4918 | 5112 | 4262 | 2860 | 1240 | 1308 | 550 | 0 | 0 |
| CCN(CCO)CCCC(C)Nc1ccnc2cc(Cl)ccc12 (centres unmarked) [HCQ, hydroxychloroquine, reference compound] | – | – | 7166 | 7642 | 8310 | 7288 | 6268 | 6670 | 9264 | 7190 | 9456 | 3934 | 558 | 1958 |
